system: HIV-IIIb; assay: Test A: Antiviral Assay in MT4 Cells; format: cell-based; details: Human immunodeficiency virus 1, IIIB, MT4, 120 h, Table 2; MT-4 cells infected with HIV-IIIb, 5 days of incubation, CellTiter-Glo; read-out: EC50
Outline: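 Read-out: CellTiter-Glo chemiluminescence after 5-day incubation at 37 °C. Compounds tested as 3-fold serial dilutions (10 concentrations, quadruplicate) in RPMI 1640 with 10% FBS, on MT-4 cells pre-infected at 37 °C with HIV-IIIb at 0.004 m.o.i.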

Question: `Cc1cc2nc(N3CCNC(c4ccc5c(cnn5C)c4)C3)sc2c(-c2ccc(Cl)cc2)c1[C@H](OC(C)(C)C)C(=O)O` (stereo partly drawn) [Compound 277, (2S)-2-tert-butoxy-2-(7-(4-chlorophenyl)-5-methyl-2-(3-(1-methyl-1H-indazol-5-yl)piperazin-1-yl)benzo[d]thiazol-6-yl)acetic acid] was tested. Which EC50 did it give?
Answer: 26 nM

Question: With `Cc1cc2nc(N3CCN(C(C)C)C(c4ccc5c(cnn5C)c4)C3)sc2c(-c2ccc(Cl)cc2)c1[C@H](OC(C)(C)C)C(=O)O` (stereo partly drawn) [Compound 279, (2S)-2-tert-butoxy-2-(7-(4-chlorophenyl)-2-(4-isopropyl-3-(1-methyl-1H-indazol-5-yl)piperazin-1-yl)-5-methylbenzo[d]thiazol-6-yl)acetic acid] as the compound, how does the EC50 read?
Answer: 16 nM

Question: For `Cc1cc2nc(-c3cccc(-c4cnc(=O)n(C)c4)c3)sc2c(-c2ccc(Cl)cc2)c1[C@H](OC(C)(C)C)C(=O)O` [Compound 280, (S)-2-tert-butoxy-2-(7-(4-chlorophenyl)-5-methyl-2-(3-(1-methyl-2-oxo-1,2-dihydropyrimidin-5-yl)phenyl)benzo[d]thiazol-6-yl)acetic acid], which EC50 is on record?
Answer: 248 nM

Question: Which EC50 does the source give for `Cc1cc2nc(-c3nccc(N4CCN(C)CC4)n3)sc2c(-c2ccc(Cl)cc2)c1[C@H](OC(C)(C)C)C(=O)O` [Compound 281, (S)-2-tert-butoxy-2-(7-(4-chlorophenyl)-5-methyl-2-(4-(4-methylpiperazin-1-yl)pyrimidin-2-yl)benzo[d]thiazol-6-yl)acetic acid] here?
Answer: 31 nM

Question: For `Cc1cc2nc(-c3cncc(N4CCN(C)CC4)n3)sc2c(-c2ccc(Cl)cc2)c1[C@H](OC(C)(C)C)C(=O)O` [Compound 282, (S)-2-tert-butoxy-2-(7-(4-chlorophenyl)-5-methyl-2-(6-(4-methylpiperazin-1-yl)pyrazin-2-yl)benzo[d]thiazol-6-yl)acetic acid], which EC50 is on record?
Answer: 3 nM

Question: How did the EC50 turn out when `Cc1cc2nc(-c3ccc4ncn(C)c4c3)sc2c(-c2ccc(Cl)cc2)c1[C@H](OC(C)(C)C)C(=O)O` [Compound 283, (S)-2-tert-butoxy-2-(7-(4-chlorophenyl)-5-methyl-2-(1-methyl-1H-benzo[d]imidazol-6-yl)benzo[d]thiazol-6-yl)acetic acid] was run?
Answer: 51 nM

Question: Which EC50 does the source give for `Cc1cc2nc(-c3ccc4c(c3)n(C)c(=O)n4C)sc2c(-c2ccc(Cl)cc2)c1[C@H](OC(C)(C)C)C(=O)O` [Compound 286, (S)-2-(tert-butoxy)-2-(7-(4-chlorophenyl)-2-(1,3-dimethyl-2-oxo-2,3-dihydro-1H-benzo[d]imidazol-5-yl)-5-methylbenzo[d]thiazol-6-yl)acetic acid] here?
Answer: 10 nM

Question: `Cc1cc2nc(-c3ccc4nc[nH]c4c3)sc2c(-c2ccc(Cl)cc2)c1[C@H](OC(C)(C)C)C(=O)O` [Compound 287, (S)-2-(2-(1H-benzo[d]imidazol-6-yl)-7-(4-chlorophenyl)-5-methylbenzo[d]thiazol-6-yl)-2-(tert-butoxy)acetic acid] was tested. Which EC50 did it give?
Answer: 113 nM

Question: How did the EC50 turn out when `COc1cnc(-c2ccc3c(cnn3C)c2)cc1-c1nc2cc(C)c([C@H](OC(C)(C)C)C(=O)O)c(-c3ccc(Cl)cc3)c2s1` [Compound 288, (S)-2-(tert-butoxy)-2-(7-(4-chlorophenyl)-2-(5-methoxy-2-(1-methyl-1H-indazol-5-yl)pyridin-4-yl)-5-methylbenzo[d]thiazol-6-yl)acetic acid] was run?
Answer: 65 nM

Question: How did the EC50 turn out when `Cc1cnc(-c2ccc3c(cnn3C)c2)cc1-c1nc2cc(C)c([C@H](OC(C)(C)C)C(=O)O)c(-c3ccc(Cl)cc3)c2s1` [Compound 289, (S)-2-(tert-butoxy)-2-(7-(4-chlorophenyl)-5-methyl-2-(5-methyl-2-(1-methyl-1H-indazol-5-yl)pyridin-4-yl)benzo[d]thiazol-6-yl)acetic acid] was run?
Answer: 25 nM

Question: For `Cc1cc2nc(-c3cc(-c4ccc5c(cnn5C)c4)ncc3C(F)F)sc2c(-c2ccc(Cl)cc2)c1[C@H](OC(C)(C)C)C(=O)O` [Compound 290, (S)-2-(tert-butoxy)-2-(7-(4-chlorophenyl)-2-(5-(difluoromethyl)-2-(1-methyl-1H-indazol-5-yl)pyridin-4-yl)-5-methylbenzo[d]thiazol-6-yl)acetic acid], which EC50 is on record?
Answer: 87 nM

Question: For `Cc1cc2nc(-c3cc(-c4ccc5c(cnn5C)c4)ncc3F)sc2c(-c2ccc(Cl)cc2)c1[C@H](OC(C)(C)C)C(=O)O` [Compound 291, (S)-2-(tert-butoxy)-2-(7-(4-chlorophenyl)-2-(5-fluoro-2-(1-methyl-1H-indazol-5-yl)pyridin-4-yl)-5-methylbenzo[d]thiazol-6-yl)acetic acid], which EC50 is on record?
Answer: 76 nM

Question: For `Cc1cc2nc(-c3ccc4nc(C)n(C)c4c3)sc2c(-c2ccc(Cl)cc2)c1[C@H](OC(C)(C)C)C(=O)O` [Compound 292, (S)-2-(tert-butoxy)-2-(7-(4-chlorophenyl)-2-(1,2-dimethyl-1H-benzo[d]imidazol-6-yl)-5-methylbenzo[d]thiazol-6-yl)acetic acid], which EC50 is on record?
Answer: 23 nM

Question: For `Cc1nc2c([nH]1)CCN(c1nc3cc(C)c([C@H](OC(C)(C)C)C(=O)O)c(-c4ccc(Cl)cc4)c3s1)C2` [Compound 293, (S)-2-tert-butoxy-2-(7-(4-chlorophenyl)-5-methyl-2-(2-methyl-6,7-dihydro-1H-imidazo[4,5-c]pyridin-5(4H)-yl)benzo[d]thiazol-6-yl)acetic acid], which EC50 is on record?
Answer: 215 nM

Question: `Cc1cc2nc(-c3ccc4c(c3)nc(C)n4C3CCN(C)CC3)sc2c(-c2ccc(Cl)cc2)c1[C@H](OC(C)(C)C)C(=O)O` [Compound 294, (S)-2-(tert-butoxy)-2-(7-(4-chlorophenyl)-5-methyl-2-(2-methyl-1-(1-methylpiperidin-4-yl)-1H-benzo[d]imidazol-5-yl)benzo[d]thiazol-6-yl)acetic acid] was tested. Which EC50 did it give?
Answer: 36 nM

Question: Which EC50 does the source give for `Cc1cc2nc(-c3ccc4c(c3)ncn4C3CCN(C)CC3)sc2c(-c2ccc(Cl)cc2)c1[C@H](OC(C)(C)C)C(=O)O` [Compound 295, (S)-2-(tert-butoxy)-2-(7-(4-chlorophenyl)-5-methyl-2-(1-(1-methylpiperidin-4-yl)-1H-benzo[d]imidazol-5-yl)benzo[d]thiazol-6-yl)acetic acid] here?
Answer: 34 nM

Question: For `Cc1cc2nc(-c3ccc4nc(C)n([C@@H]5CCN(C)C5)c4c3)sc2c(-c2ccc(Cl)cc2)c1[C@H](OC(C)(C)C)C(=O)O` [Compound 296, (S)-2-tert-butoxy-2-(7-(4-chlorophenyl)-5-methyl-2-(2-methyl-1-((R)-1-methylpyrrolidin-3-yl)-1H-benzo[d]imidazol-6-yl)benzo[d]thiazol-6-yl)acetic acid], which EC50 is on record?
Answer: 13 nM

Question: For `Cc1cc2nc(-c3ccc4nc(C)n(C5CN(C)C5)c4c3)sc2c(-c2ccc(Cl)cc2)c1[C@H](OC(C)(C)C)C(=O)O` [Compound 297, (S)-2-tert-butoxy-2-(7-(4-chlorophenyl)-5-methyl-2-(2-methyl-1-(1-methylazetidin-3-yl)-1H-benzo[d]imidazol-6-yl)benzo[d]thiazol-6-yl)acetic acid], which EC50 is on record?
Answer: 17 nM

Question: With `Cc1cc2nc(-c3ccc4nc(C)n(C5CNC5)c4c3)sc2c(-c2ccc(Cl)cc2)c1[C@H](OC(C)(C)C)C(=O)O` [Compound 298, (S)-2-(2-(1-(azetidin-3-yl)-2-methyl-1H-benzo[d]imidazol-6-yl)-7-(4-chlorophenyl)-5-methylbenzo[d]thiazol-6-yl)-2-tert-butoxyacetic acid] as the compound, how does the EC50 read?
Answer: 181 nM

Question: With `Cc1cc2nc(-c3ccc4nc(C)n([C@@H]5CCNC5)c4c3)sc2c(-c2ccc(Cl)cc2)c1[C@H](OC(C)(C)C)C(=O)O` [Compound 299, (S)-2-tert-butoxy-2-(7-(4-chlorophenyl)-5-methyl-2-(2-methyl-1-((R)-pyrrolidin-3-yl)-1H-benzo[d]imidazol-6-yl)benzo[d]thiazol-6-yl)acetic acid] as the compound, how does the EC50 read?
Answer: 130 nM

Question: For `Cc1cc2nc(-c3ccc4nc(C)n([C@@H]5CCN(C(C)C)C5)c4c3)sc2c(-c2ccc(Cl)cc2)c1[C@H](OC(C)(C)C)C(=O)O` [Compound 300, (S)-2-tert-butoxy-2-(7-(4-chlorophenyl)-2-(1-((R)-1-isopropylpyrrolidin-3-yl)-2-methyl-1H-benzo[d]imidazol-6-yl)-5-methylbenzo[d]thiazol-6-yl)acetic acid], which EC50 is on record?
Answer: 12 nM

Question: Which EC50 does the source give for `Cc1cc2nc(-c3ccc4nc(C)n([C@H]5CCNC5)c4c3)sc2c(-c2ccc(Cl)cc2)c1[C@H](OC(C)(C)C)C(=O)O` [Compound 301, (S)-2-tert-butoxy-2-(7-(4-chlorophenyl)-5-methyl-2-(2-methyl-1-((S)-pyrrolidin-3-yl)-1H-benzo[d]imidazol-6-yl)benzo[d]thiazol-6-yl)acetic acid] here?
Answer: 109 nM

Question: `Cc1cc2nc(-c3cnc4c(c3)nc(C)n4C)sc2c(-c2ccc(Cl)cc2)c1[C@H](OC(C)(C)C)C(=O)O` [Compound 302, (S)-2-tert-butoxy-2-(7-(4-chlorophenyl)-2-(2,3-dimethyl-3H-imidazo[4,5-b]pyridin-6-yl)-5-methylbenzo[d]thiazol-6-yl)acetic acid] was tested. Which EC50 did it give?
Answer: 8 nM

Question: `Cc1cc2nc(-c3ccc4c(c3)[nH]c(=O)n4C)sc2c(-c2ccc(Cl)cc2)c1[C@H](OC(C)(C)C)C(=O)O` [Compound 303, (S)-2-tert-butoxy-2-(7-(4-chlorophenyl)-5-methyl-2-(1-methyl-2-oxo-2,3-dihydro-1H-benzo[d]imidazol-5-yl)benzo[d]thiazol-6-yl)acetic acid] was tested. Which EC50 did it give?
Answer: 19 nM

Question: For `Cc1cc2nc(-c3cnc(C)c(-c4ccc5c(cnn5C)c4)c3)sc2c(-c2ccc(Cl)cc2)c1[C@H](OC(C)(C)C)C(=O)O` [Compound 305, (S)-2-tert-butoxy-2-(7-(4-chlorophenyl)-5-methyl-2-(6-methyl-5-(1-methyl-1H-indazol-5-yl)pyridin-3-yl)benzo[d]thiazol-6-yl)acetic acid], which EC50 is on record?
Answer: 10 nM

Question: For `Cc1cc2nc(-c3cc(-c4ccc5c(cnn5C)c4)cnc3C)sc2c(-c2ccc(Cl)cc2)c1[C@H](OC(C)(C)C)C(=O)O` [Compound 306, (S)-2-tert-butoxy-2-(7-(4-chlorophenyl)-5-methyl-2-(2-methyl-5-(1-methyl-1H-indazol-5-yl)pyridin-3-yl)benzo[d]thiazol-6-yl)acetic acid], which EC50 is on record?
Answer: 14 nM

Source: patent US8987250B2 (Gilead Sciences, Inc., priority 2012, dated 2015)
